Values after ≈ are worked out from the molar mass of the structure shown. Where two headings read alike, the source gives them in different places.
Legend:
Experiment in all cases: Antibacterial activity, standard method of Japan Society of Chemotherapy (MIC)
Format in all cases: cell-based
E. coli, NIHJ = tested on: E. coli, NIHJ
Description: (§1) The following Inventive and Reference Examples are provided to further illustrate the present invention, but not by way of limitation. The antibacterial activity of optically active compounds of interest was tested in accordance with the standard method designated by Japan Society of Chemotherapy. The results are shown in Table 1 as MIC (μg/ml). [drawing 10]

Pr. mirabilis, IFO-3849 = tested on: Pr. mirabilis, IFO-3849
Description: as §1

Pr. vulgaris, 08601 = tested on: Pr. vulgaris, 08601
Description: as §1

Ps. aeruginosa, 32104 = tested on: Ps. aeruginosa, 32104
Description: as §1

Ps. aeruginosa, 32121 = tested on: Ps. aeruginosa, 32121
Description: as §1

[1] = tested on: Ps. maltophilia, IID-1275
Description: as §1

S. aureus, 209P = tested on: S. aureus, 209P
Description: as §1

S. aureus, 87037 = tested on: S. aureus, 87037
Description: as §1

S. epidermidis, 56500 = tested on: S. epidermidis, 56500
Description: as §1

S. flexneri, 2A 5503 = tested on: S. flexneri, 2A 5503
Description: as §1

Ser. marcescens, 10100 = tested on: Ser. marcescens, 10100
Description: as §1

[2] = tested on: Str. faeccalis, ATCC-19433
Description: as §1

Str. pyogenes, G-36 = tested on: Str. pyogenes, G-36
Description: as §1

[3] = Escherichia coli, read-out: MIC
[4] = Proteus mirabilis, IFO3849, Pr. mirabilis, read-out: MIC
[5] = Pseudomonas aeruginosa, 32104, Ps. aeruginosa, read-out: MIC
[6] = Pseudomonas aeruginosa, read-out: MIC
[7] = Stenotrophomonas maltophilia, IID1275, Ps. maltophilia, read-out: MIC
[8] = Staphylococcus aureus, read-out: MIC
[9] = Staphylococcus aureus, 87037, S. aureus, read-out: MIC
[10] = Staphylococcus epidermidis, 56500, S. epidermidis, read-out: MIC
[11] = Shigella flexneri, 2A5503, read-out: MIC
[12] = Serratia marcescens, read-out: MIC
[13] = Streptococcus pyogenes, G36, Str. pyogenes, read-out: MIC
[14] = Proteus vulgaris, 08601, Pr. vulgaris, read-out: MIC

SMILES | MIC (E. coli, NIHJ; [3]) | MIC (Pr. mirabilis, IFO-3849; [4]) | MIC (Pr. vulgaris, 08601; Pr. vulgaris) | MIC (Ps. aeruginosa, 32104; [5]) | MIC (Ps. aeruginosa, 32121; [6]) | MIC [1, 7] | MIC (S. aureus, 209P; [8]) | MIC (S. aureus, 87037; [9]) | MIC (S. epidermidis, 56500; [10]) | MIC (S. flexneri, 2A 5503; [11]) | MIC (Ser. marcescens, 10100; [12]) | MIC ([2]; read-out: MIC) | MIC (Str. pyogenes, G-36; [13]) | MIC (E. coli, NIHJ) | MIC (Pr. mirabilis, IFO-3849; Pr. mirabilis) | MIC (Ps. aeruginosa, 32104; Ps. aeruginosa) | MIC (Ps. aeruginosa, 32121) | MIC (S. aureus, 87037; S. aureus) | MIC (S. epidermidis, 56500; S. epidermidis) | MIC (Str. pyogenes, G-36; Str. pyogenes) | also measured
Nc1c(F)c(N2CCC3(CC3N)C2)c(F)c2c1c(=O)c(C(=O)O)cn2[C@@H]1C[C@@H]1F (single isomer, unassigned) [Example 1] | ≤ 0.003 µg/mL | 0.013 µg/mL (≈ 0.0318 µM) | 0.006 µg/mL (≈ 0.0147 µM) | 0.025 µg/mL (≈ 0.0612 µM) | 0.025 µg/mL (≈ 0.0612 µM) | 0.025 µg/mL (≈ 0.0612 µM) | ≤ 0.003 µg/mL | 0.05 µg/mL (≈ 0.122 µM) | ≤ 0.003 µg/mL | ≤ 0.003 µg/mL | 0.025 µg/mL (≈ 0.0612 µM) | 0.025 µg/mL (≈ 0.0612 µM) | 0.013 µg/mL (≈ 0.0318 µM) | – | – | – | – | – | – | – | –
Nc1c(F)c(N2CCC3(CC3N)C2)c(F)c2c1c(=O)c(C(=O)O)cn2[C@@H]1C[C@@H]1F (single isomer, unassigned) [Example 4] | – | – | 0.013 µg/mL (≈ 0.0318 µM) | – | – | – | – | – | – | – | – | – | – | ≦0.003 μg/ml | 0.025 µg/mL (≈ 0.0612 µM) | 0.05 µg/mL (≈ 0.122 µM) | 0.025 µg/mL (≈ 0.0612 µM) | 0.05 µg/mL (≈ 0.122 µM) | ≦0.003 μg/ml | 0.013 µg/mL (≈ 0.0318 µM) | MIC ([1]; Ps. maltophilia): 0.025 µg/mL (≈ 0.0612 µM); MIC (S. aureus, 209P): ≦0.003 μg/ml; MIC (S. flexneri, 2A 5503): ≦0.003 μg/ml; MIC (Ser. marcescens, 10100): 0.025 µg/mL (≈ 0.0612 µM); MIC [2]: 0.025 µg/mL (≈ 0.0612 µM)
Cc1c(N2CCC3(CC3N)C2)c(F)c(N)c2c(=O)c(C(=O)O)cn([C@@H]3C[C@@H]3F)c12 (single isomer, unassigned) [Example 5] | ≤ 0.003 µg/mL | 0.05 µg/mL (≈ 0.124 µM) | – | 0.05 µg/mL (≈ 0.124 µM) | 0.025 µg/mL (≈ 0.0618 µM) | 0.05 µg/mL (≈ 0.124 µM) | ≤ 0.003 µg/mL | 0.1 µg/mL (≈ 0.247 µM) | 0.013 µg/mL (≈ 0.0321 µM) | ≤ 0.003 µg/mL | 0.05 µg/mL (≈ 0.124 µM) | 0.05 µg/mL (≈ 0.124 µM) | 0.05 µg/mL (≈ 0.124 µM) | – | – | – | – | – | – | – | MIC (Pr. vulgaris, 08601; [14]): 0.013 µg/mL (≈ 0.0321 µM)
Cc1c(N2CCC3(CC3N)C2)c(F)cc2c(=O)c(C(=O)O)cn([C@@H]3C[C@@H]3F)c12 (single isomer, unassigned) [Example 6] | ≤ 0.003 µg/mL | 0.013 µg/mL (≈ 0.0334 µM) | – | 0.05 µg/mL (≈ 0.128 µM) | 0.025 µg/mL (≈ 0.0642 µM) | 0.05 µg/mL (≈ 0.128 µM) | ≤ 0.003 µg/mL | – | – | ≤ 0.003 µg/mL | 0.025 µg/mL (≈ 0.0642 µM) | 0.05 µg/mL (≈ 0.128 µM) | – | – | – | – | – | 0.10 µg/mL (≈ 0.257 µM) | 0.013 µg/mL (≈ 0.0334 µM) | 0.013 µg/mL (≈ 0.0334 µM) | MIC (Pr. vulgaris, 08601; [14]): ≤ 0.003 µg/mL
Cc1c(N2CCC3(CC3N)C2)c(F)cc2c(=O)c(C(=O)O)cn([C@@H]3C[C@@H]3F)c12 (single isomer, unassigned) [Example 7] | – | – | ≦0.003 μg/ml | – | – | – | – | – | – | – | – | – | – | ≦0.003 μg/ml | 0.013 µg/mL (≈ 0.0334 µM) | 0.05 µg/mL (≈ 0.128 µM) | 0.025 µg/mL (≈ 0.0642 µM) | 0.25 µg/mL (≈ 0.642 µM) | 0.006 µg/mL (≈ 0.0154 µM) | 0.006 µg/mL (≈ 0.0154 µM) | MIC ([1]; Ps. maltophilia): 0.025 µg/mL (≈ 0.0642 µM); MIC (S. aureus, 209P): ≦0.003 μg/ml; MIC (S. flexneri, 2A 5503): ≦0.003 μg/ml; MIC (Ser. marcescens, 10100): 0.025 µg/mL (≈ 0.0642 µM); MIC [2]: 0.025 µg/mL (≈ 0.0642 µM)

Reference: patent publication US6469023B1, “Heterocyclic spiro-derivative” (Daiichi Pharmaceutical Co., Ltd., priority 1995, dated 2002)
